# Results as given in the kinase profiling compilation of Christmann-Franck et al. (2016).
# Several values for one entry are separate records, joined by “and”; a condition that tells them apart may be missing. Equal entries are not always repeated.
# How the values were obtained:
# Assay in all cases: radiometric filter-binding kinase assay, Kinase HotSpot
# Details in all cases: compound 0.5 µM; ATP 10 µM
# [1] = biological target: ITK (human) (UniProt Q08881)
# [2] = biological target: LIMK1 (human) (UniProt P53667)
# [3] = biological target: PKN2 (human) (UniProt Q16513)
# [4] = biological target: CSNK1G2 (human) (UniProt P78368)
# [5] = biological target: CDK5 CDK5R1 p35 (human) (UniProt Q00535+Q15078)
# [6] = biological target: STK39 (human) (UniProt Q9UEW8)
# [7] = biological target: PIM3 (human) (UniProt Q86V86)
# [8] = biological target: PRKCZ (human) (UniProt Q05513)
# Sequence of PRKCZ (human) (Q05513 whole entry, looked up): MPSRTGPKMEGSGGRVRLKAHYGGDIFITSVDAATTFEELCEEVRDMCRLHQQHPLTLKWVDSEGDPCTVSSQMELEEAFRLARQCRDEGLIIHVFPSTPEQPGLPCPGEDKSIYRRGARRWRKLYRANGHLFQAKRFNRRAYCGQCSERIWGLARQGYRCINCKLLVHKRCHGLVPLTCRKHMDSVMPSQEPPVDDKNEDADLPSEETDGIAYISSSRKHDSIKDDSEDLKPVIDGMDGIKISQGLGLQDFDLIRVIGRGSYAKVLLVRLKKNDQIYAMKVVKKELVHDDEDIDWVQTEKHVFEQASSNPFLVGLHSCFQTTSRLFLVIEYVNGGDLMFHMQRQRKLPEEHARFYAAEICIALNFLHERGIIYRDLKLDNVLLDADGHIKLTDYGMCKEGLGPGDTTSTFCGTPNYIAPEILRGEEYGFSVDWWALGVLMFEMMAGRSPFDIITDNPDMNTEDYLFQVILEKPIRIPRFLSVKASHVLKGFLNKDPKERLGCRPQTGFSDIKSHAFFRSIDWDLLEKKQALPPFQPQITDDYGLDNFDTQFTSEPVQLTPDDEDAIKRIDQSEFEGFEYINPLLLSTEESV
# [9] = biological target: CAMK2G (human) (UniProt Q13555)
# [10] = biological target: EGFR (human) (UniProt P00533)
# Sequence of EGFR (human) (P00533 whole entry, looked up): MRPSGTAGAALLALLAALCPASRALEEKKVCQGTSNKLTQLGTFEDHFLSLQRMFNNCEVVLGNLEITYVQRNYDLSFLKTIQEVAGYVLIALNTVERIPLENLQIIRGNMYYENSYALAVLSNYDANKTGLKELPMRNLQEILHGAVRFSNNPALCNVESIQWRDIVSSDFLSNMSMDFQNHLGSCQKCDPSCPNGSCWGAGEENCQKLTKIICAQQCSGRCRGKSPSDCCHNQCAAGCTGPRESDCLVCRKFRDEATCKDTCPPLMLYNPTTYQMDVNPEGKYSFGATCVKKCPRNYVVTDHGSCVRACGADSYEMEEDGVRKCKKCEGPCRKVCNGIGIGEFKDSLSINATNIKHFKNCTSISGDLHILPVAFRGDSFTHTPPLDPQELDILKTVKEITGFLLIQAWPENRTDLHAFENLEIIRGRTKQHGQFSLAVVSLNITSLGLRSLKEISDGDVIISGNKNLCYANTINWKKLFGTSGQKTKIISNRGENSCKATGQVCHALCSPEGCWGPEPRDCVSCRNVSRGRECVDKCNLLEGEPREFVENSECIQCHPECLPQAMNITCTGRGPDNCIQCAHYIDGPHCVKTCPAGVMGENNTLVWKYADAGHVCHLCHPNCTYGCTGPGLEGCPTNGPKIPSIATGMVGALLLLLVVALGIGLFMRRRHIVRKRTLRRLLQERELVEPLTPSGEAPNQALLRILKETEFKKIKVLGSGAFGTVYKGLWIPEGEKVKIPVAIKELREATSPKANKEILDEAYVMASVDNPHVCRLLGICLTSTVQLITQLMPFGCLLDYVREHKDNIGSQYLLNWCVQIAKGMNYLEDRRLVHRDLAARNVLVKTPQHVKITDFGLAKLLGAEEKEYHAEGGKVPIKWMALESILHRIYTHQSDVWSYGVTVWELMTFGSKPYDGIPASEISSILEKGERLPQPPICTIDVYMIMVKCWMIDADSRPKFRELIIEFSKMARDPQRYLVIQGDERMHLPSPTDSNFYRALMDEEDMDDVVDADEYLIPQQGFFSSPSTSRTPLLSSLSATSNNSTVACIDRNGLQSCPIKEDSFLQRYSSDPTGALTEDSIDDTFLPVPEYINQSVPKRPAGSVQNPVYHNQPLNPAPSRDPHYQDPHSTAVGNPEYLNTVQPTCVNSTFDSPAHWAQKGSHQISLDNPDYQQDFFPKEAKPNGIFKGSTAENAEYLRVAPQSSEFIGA
# [11] = biological target: CSNK1D (human) (UniProt P48730)
# [12] = biological target: FGFR1 (human) (UniProt P11362)
# [13] = biological target: PAK4 (human) (UniProt O96013)
# [14] = biological target: PAK7 (human) (UniProt Q9P286)
# [15] = biological target: MAPK3 (human) (UniProt P27361)
# Sequence of MAPK3 (human) (P27361 whole entry, looked up): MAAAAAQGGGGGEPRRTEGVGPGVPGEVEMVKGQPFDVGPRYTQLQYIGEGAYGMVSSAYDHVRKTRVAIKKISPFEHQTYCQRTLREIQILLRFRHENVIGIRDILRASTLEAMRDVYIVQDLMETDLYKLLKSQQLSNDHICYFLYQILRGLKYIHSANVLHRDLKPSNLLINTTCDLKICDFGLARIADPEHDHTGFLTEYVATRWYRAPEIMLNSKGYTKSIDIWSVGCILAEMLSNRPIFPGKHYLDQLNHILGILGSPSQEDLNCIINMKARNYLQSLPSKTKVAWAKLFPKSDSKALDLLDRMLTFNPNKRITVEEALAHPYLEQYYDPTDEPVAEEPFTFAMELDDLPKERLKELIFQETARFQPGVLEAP
# [16] = biological target: PDPK1 (human) (UniProt O15530)
# [17] = biological target: JAK3 JH1 JH2 (human) (UniProt P52333)
# [18] = biological target: DAPK3 (human) (UniProt O43293)
# [19] = biological target: FYN (human) (UniProt P06241)
# [20] = biological target: NEK6 (human) (UniProt Q9HC98)
# [21] = biological target: MARK2 (human) (UniProt Q7KZI7)
# [22] = biological target: LYN (human) (UniProt P07948)
# [23] = biological target: DAPK2 (human) (UniProt Q9UIK4)
# Sequence of DAPK2 (human) (Q9UIK4 whole entry, looked up): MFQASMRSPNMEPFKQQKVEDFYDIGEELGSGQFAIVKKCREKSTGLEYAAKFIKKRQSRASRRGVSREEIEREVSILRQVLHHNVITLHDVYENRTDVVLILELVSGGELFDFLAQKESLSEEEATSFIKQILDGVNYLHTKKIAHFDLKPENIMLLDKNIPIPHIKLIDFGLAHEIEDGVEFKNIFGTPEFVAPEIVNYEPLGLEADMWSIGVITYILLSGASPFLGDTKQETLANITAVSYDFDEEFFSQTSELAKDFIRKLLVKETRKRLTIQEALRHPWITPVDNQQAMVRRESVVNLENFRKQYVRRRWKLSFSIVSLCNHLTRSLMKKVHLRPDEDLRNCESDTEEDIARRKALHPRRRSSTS
# [24] = biological target: NTRK2 (human) (UniProt Q16620)
# Sequence of NTRK2 (human) (Q16620 whole entry, looked up): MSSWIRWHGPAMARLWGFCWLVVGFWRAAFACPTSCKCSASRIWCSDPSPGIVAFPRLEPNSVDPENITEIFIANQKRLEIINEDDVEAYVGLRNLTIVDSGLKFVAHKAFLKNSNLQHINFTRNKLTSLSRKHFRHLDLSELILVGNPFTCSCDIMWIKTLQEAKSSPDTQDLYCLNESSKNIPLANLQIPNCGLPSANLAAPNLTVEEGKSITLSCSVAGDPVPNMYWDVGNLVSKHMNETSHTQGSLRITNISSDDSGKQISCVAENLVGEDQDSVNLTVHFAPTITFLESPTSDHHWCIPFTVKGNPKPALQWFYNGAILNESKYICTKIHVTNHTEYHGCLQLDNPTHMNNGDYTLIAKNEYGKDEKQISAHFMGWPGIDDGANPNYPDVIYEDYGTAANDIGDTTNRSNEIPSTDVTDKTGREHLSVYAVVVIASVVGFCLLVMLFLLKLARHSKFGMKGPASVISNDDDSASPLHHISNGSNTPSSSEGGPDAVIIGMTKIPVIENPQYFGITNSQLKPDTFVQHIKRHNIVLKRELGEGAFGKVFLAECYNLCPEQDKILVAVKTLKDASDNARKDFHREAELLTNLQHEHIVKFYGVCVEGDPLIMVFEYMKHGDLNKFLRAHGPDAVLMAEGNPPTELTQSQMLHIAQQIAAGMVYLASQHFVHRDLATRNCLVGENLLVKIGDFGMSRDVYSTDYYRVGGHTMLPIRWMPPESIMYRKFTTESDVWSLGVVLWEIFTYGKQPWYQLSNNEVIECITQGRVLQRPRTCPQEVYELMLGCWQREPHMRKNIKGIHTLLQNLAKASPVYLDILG
# [25] = biological target: NEK9 (human) (UniProt Q8TD19)
# [26] = biological target: MAP3K11 (human) (UniProt Q16584)
# [27] = biological target: ERBB4 (human) (UniProt Q15303)
# [28] = biological target: CDK6 CCND1 (human) (UniProt Q00534+P24385)
# [29] = biological target: PRKCA (human) (UniProt P17252)
# [30] = biological target: MAPK8 (human) (UniProt P45983)
# [31] = biological target: PKN1 (human) (UniProt Q16512)
# [32] = biological target: TSSK1B (human) (UniProt Q9BXA7)
# [33] = biological target: KIT (human) (UniProt P10721)
# [34] = biological target: CDK5 CDK5R1 p25 (human) (UniProt Q00535+Q15078)
# [35] = biological target: TBK1 (human) (UniProt Q9UHD2)
# Sequence of TBK1 (human) (Q9UHD2 whole entry, looked up): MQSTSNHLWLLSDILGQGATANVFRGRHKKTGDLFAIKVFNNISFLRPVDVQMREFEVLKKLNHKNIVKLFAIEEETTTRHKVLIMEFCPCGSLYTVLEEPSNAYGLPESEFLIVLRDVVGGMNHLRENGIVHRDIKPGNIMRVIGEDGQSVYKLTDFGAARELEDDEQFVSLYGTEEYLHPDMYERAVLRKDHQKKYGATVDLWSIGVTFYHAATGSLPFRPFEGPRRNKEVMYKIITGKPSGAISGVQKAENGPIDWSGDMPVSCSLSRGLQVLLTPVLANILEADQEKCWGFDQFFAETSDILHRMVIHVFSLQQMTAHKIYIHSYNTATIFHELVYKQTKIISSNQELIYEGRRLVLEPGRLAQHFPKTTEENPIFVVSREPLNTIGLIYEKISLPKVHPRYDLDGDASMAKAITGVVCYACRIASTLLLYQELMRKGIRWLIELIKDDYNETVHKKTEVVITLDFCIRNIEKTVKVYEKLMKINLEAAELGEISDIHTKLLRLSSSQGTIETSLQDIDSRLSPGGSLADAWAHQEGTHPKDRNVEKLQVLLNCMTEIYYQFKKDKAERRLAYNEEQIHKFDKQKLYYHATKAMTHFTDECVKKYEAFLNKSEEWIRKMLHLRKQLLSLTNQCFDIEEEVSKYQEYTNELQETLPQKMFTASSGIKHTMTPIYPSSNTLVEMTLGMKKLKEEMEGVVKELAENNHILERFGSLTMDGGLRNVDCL
# [36] = biological target: IKBKE (human) (UniProt Q14164)
# [37] = biological target: SGK3 (human) (UniProt Q96BR1)
# [38] = biological target: CAMK1D (human) (UniProt Q8IU85)
# [39] = biological target: DMPK (human) (UniProt Q09013)
# [40] = biological target: PAK3 (human) (UniProt O75914)
# [41] = biological target: NTRK3 (human) (UniProt Q16288)
# [42] = biological target: ABL1 (human) (UniProt P00519)
smiles,measurement,setting,value
COc1cc(Nc2c(C#N)cnc3cc(OCCCN4CCN(C)CC4)c(OC)cc23)c(Cl)cc1Cl,residual activity,[1],103%
same,residual activity,[2],96.4%
same,residual activity,[3],105%
same,residual activity,[4],98.3%
same,residual activity,[5],98.3%
same,residual activity,[6],93.6%
same,residual activity,[7],97.7%
same,residual activity,[8],89.7%
same,residual activity,[9],131%
same,residual activity,[10],3.84%
same,residual activity,[11],10.9%
same,residual activity,[12],64.4%
same,residual activity,[13],95.8%
same,residual activity,[14],83.6%
same,residual activity,[15],98.9%
same,residual activity,[16],89.8%
same,residual activity,[17],88.5%
same,residual activity,[18],107%
same,residual activity,[19],29.4%
same,residual activity,[20],85.3%
same,residual activity,[21],99.9%
same,residual activity,[22],2.13% and 6%
same,residual activity,[23],82.9%
same,residual activity,[24],69.2%
same,residual activity,[25],94%
same,residual activity,[26],13.5%
same,residual activity,[27],1.53%
same,residual activity,[28],99.4%
same,residual activity,[29],49.5%
same,residual activity,[30],105%
same,residual activity,[31],74.2%
same,residual activity,[32],79.2%
same,residual activity,[33],93.6%
same,residual activity,[34],95.9%
same,residual activity,[35],65.7%
same,residual activity,[36],75.4%
same,residual activity,[37],94.4%
CN(C)S(=O)(=O)c1ccc2c(c1)/C(=C/c1cc3c([nH]1)CCCC3)C(=O)N2,residual activity,[1],61.2%
same,residual activity,[38],99.8%
same,residual activity,[2],60.7%
same,residual activity,[3],84.3%
same,residual activity,[4],93.8%
same,residual activity,[39],102%
same,residual activity,[5],76.9%
same,residual activity,[6],99.5%
same,residual activity,[7],117%
same,residual activity,[8],98.9%
same,residual activity,[9],98.9%
same,residual activity,[10],93.4%
same,residual activity,[11],99.7%
same,residual activity,[12],71.4%
same,residual activity,[13],97.6%
same,residual activity,[40],97.6%
same,residual activity,[15],102%
same,residual activity,[17],64.8%
same,residual activity,[18],94.4%
same,residual activity,[19],33.1%
same,residual activity,[20],90.7%
same,residual activity,[21],61.7%
same,residual activity,[41],2.88%
same,residual activity,[23],93.5%
same,residual activity,[24],15.6%
same,residual activity,[25],93.2%
same,residual activity,[26],57.4%
same,residual activity,[27],106%
same,residual activity,[28],92.5%
same,residual activity,[29],94.9%
same,residual activity,[30],91.1%
same,residual activity,[42],57.3%
same,residual activity,[31],91.2%
same,residual activity,[32],74.6%
same,residual activity,[33],60.7%
same,residual activity,[34],72.9%
same,residual activity,[35],80.6%
same,residual activity,[36],87.9%
same,residual activity,[37],98.1%
O=C1c2ccccc2-c2nc3nnnn3nc21,residual activity,[1],71.5%
same,residual activity,[38],93.9%
same,residual activity,[2],65%
same,residual activity,[3],77.1%
same,residual activity,[4],82.2%
same,residual activity,[39],84.8%
same,residual activity,[5],79.1%
same,residual activity,[6],89.2%
same,residual activity,[7],93.3%
same,residual activity,[8],99.1%
same,residual activity,[9],91.1%
same,residual activity,[10],37%
same,residual activity,[11],86.8%
same,residual activity,[12],24.2%
same,residual activity,[13],91.4%
same,residual activity,[14],93.4%
same,residual activity,[40],97.1%
same,residual activity,[15],87%
same,residual activity,[16],79%
same,residual activity,[17],90.4%
same,residual activity,[18],96.2%
same,residual activity,[19],76.2%
same,residual activity,[20],96.3%
same,residual activity,[21],94.2%
same,residual activity,[41],87.2%
same,residual activity,[23],83.4%
same,residual activity,[24],29.4%
same,residual activity,[25],119%
same,residual activity,[26],69%
same,residual activity,[27],50.2%
same,residual activity,[28],59.6%
same,residual activity,[29],91.4%
same,residual activity,[30],78.3%
same,residual activity,[42],89.7%
same,residual activity,[31],97.5%
same,residual activity,[32],88.7%
same,residual activity,[33],22.2%
same,residual activity,[34],46.4%
same,residual activity,[35],87%
same,residual activity,[36],89.2%
same,residual activity,[37],90.4%
